Read-outs that look alike come from different tables or passages of the source.
Experiments:
PI3K alfa = target: T1, PI3K alfa (Homo sapiens, UniProt P42336); assay: PI3K alpha kinase assay (Kinase-Glo luminescence); type: biochemical
T1 construct: His tag (C); made in house; host or cells: baculovirus BV1075; Tn5 (Trichoplusia ni) or TiniPro insect cells
Outline: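 Kinase-Glo luminescence read of ATP remaining after PI3Kα (10 nM) phosphorylates 10 μg/mL bovine liver phosphatidylinositol with 1 μM ATP, pH 7.5 TRIS, 3 mM MgCl2, 0.05% CHAPS; 60 min at room temperature. IC50 from 4-parameter logistic fit over 8 concentrations.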

PI3K delta = target: T2, PI3K delta (Homo sapiens, UniProt O00329); assay: PI3K delta kinase assay (Kinase-Glo luminescence); type: biochemical
T2 construct: for the full-length p110-d subunit are generated and fused by overlapping PCR; His tag (C); made in house; host or cells: baculovirus BV1060; Tn5 (Trichoplusia ni) or TiniPro insect cells
T2 sequence (O00329 with tags, fused parts or gaps limits assumed): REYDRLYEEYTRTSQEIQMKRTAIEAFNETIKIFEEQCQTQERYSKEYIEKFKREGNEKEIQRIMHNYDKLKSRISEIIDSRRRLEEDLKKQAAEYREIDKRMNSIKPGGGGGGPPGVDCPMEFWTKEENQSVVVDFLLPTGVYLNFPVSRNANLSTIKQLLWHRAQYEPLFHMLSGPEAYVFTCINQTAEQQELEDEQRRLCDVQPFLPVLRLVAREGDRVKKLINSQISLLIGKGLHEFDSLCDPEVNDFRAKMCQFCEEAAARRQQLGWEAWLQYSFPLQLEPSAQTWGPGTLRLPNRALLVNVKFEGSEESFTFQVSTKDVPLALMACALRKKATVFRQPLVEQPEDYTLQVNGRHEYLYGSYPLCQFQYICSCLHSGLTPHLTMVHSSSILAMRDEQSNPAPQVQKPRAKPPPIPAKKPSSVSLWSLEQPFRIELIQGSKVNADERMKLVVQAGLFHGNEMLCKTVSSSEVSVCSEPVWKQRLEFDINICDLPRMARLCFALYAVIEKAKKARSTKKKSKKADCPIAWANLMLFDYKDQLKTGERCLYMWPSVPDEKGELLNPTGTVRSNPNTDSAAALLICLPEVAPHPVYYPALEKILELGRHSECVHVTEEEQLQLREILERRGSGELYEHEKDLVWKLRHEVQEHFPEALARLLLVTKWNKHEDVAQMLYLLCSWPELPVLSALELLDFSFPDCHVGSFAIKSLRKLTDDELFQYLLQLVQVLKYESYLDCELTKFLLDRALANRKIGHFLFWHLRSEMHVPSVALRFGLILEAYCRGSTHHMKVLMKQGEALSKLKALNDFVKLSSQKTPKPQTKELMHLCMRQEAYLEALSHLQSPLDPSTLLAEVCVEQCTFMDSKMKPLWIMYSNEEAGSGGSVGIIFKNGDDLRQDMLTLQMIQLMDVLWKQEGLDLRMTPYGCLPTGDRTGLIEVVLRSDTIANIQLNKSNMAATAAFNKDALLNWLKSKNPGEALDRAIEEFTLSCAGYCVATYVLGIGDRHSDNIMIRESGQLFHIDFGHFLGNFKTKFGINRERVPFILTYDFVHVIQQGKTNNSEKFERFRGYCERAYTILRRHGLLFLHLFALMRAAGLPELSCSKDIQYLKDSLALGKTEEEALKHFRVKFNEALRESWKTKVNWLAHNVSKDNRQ
Outline: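 Kinase-Glo ATP-depletion luminescence using 10 nM p85(iSH2)-linker-p110δ full-length His-tag construct from insect cells, with 1 μM ATP and 10 μg/mL phosphatidylinositol in 10 mM Tris pH 7.5, 3 mM MgCl2, 50 mM NaCl, 0.05% CHAPS, 1 mM DTT. 60 min room temperature; IC50 from 4-parameter logistic fit over 8 concentrations.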

T1 sequence (P42336 with tags, fused parts or gaps limits assumed): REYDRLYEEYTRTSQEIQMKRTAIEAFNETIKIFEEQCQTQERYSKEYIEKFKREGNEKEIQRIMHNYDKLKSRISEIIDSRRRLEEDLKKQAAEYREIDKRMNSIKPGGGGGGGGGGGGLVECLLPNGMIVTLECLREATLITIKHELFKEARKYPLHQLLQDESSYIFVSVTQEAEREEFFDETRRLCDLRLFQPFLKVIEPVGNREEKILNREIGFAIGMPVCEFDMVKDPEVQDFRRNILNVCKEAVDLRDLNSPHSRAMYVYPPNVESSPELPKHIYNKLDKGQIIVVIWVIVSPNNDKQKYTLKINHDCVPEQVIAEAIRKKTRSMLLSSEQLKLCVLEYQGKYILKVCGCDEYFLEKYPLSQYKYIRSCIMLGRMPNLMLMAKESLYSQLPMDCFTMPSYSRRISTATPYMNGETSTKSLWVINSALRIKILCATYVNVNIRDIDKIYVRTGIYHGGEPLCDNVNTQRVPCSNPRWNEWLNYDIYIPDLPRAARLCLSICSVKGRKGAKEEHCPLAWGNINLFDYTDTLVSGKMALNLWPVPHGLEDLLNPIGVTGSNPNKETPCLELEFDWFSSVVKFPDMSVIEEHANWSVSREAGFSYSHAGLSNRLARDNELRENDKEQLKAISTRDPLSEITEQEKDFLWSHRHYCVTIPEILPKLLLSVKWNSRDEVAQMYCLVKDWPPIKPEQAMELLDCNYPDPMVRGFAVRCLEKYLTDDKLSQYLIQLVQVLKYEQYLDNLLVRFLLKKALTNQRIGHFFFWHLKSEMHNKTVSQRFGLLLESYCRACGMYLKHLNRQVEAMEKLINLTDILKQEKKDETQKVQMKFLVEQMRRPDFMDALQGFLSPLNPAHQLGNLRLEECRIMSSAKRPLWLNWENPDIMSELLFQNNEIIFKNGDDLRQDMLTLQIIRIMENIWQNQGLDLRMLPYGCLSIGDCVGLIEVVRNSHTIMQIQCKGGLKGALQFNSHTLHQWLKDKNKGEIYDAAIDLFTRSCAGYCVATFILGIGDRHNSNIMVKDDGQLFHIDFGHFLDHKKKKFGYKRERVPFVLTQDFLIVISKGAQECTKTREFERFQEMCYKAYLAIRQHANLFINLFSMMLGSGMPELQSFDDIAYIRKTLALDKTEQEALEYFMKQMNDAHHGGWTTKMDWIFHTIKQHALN

## CNc1ncc(-c2ccc3ncc4c(c3c2)n(-c2ccc(C)nc2C)c(=O)n4C)cn1 [Example 14.4, 1-(2,6-Dimethyl-pyridin-3-yl)-3-methyl-8-(2-methylamino-pyrimidin-5-yl)-1,3-dihydro-imidazo[4,5-c]quinolin-2-one]
PI3K alfa; read-out: EPK_PI3Kalfa/IC50
  IC50: 30 nM
PI3K delta; read-out: EPK_PI3Kdelta/IC50
  IC50: 44 nM

## Cc1ncccc1-n1c(=O)n(C)c2cnc3ccc(-c4cnc5c(ccn5C)c4)cc3c21 [Example 2.14, 3-Methyl-1-(2-methyl-pyridin-3-yl)-8-(1-methyl-1H-pyrrolo[2,3-b]pyridin-5-yl)-1,3-dihydro-imidazo[4,5-c]quinolin-2-one]
PI3K alfa; read-out: PI3Kalfa/IC50
  IC50: 34 nM
PI3K delta; read-out: PI3Kdelta/IC50
  IC50: 57 nM

## CNc1ncc(-c2ccc3ncc4c(c3c2)n(-c2ccc(F)nc2C)c(=O)n4C)cc1F [Example 7.12, 8-(5-Fluoro-6-methylamino-pyridin-3-yl)-1-(6-fluoro-2-methyl-pyridin-3-yl)-3-methyl-1,3-dihydro-imidazo[4,5-c]quinolin-2-one]
PI3K alfa; read-out: EPK_PI3Kalfa/IC50
  IC50: 44 nM
PI3K delta; read-out: EPK_PI3Kdelta/IC50
  IC50: 12 nM

## CNc1cc(-c2ccc3ncc4c(c3c2)n(-c2ccc(N(C)C)nc2C)c(=O)n4C)cnc1C [Example 19.2, 1-(6-Dimethylamino-2-methyl-pyridin-3-yl)-3-methyl-8-(6-methyl-5-methylamino-pyridin-3-yl)-1,3-dihydro-imidazo[4,5-c]quinolin-2-one]
PI3K alfa; read-out: EPK_PI3Kalfa/IC50
  IC50: 14 nM
PI3K delta; read-out: EPK_PI3Kdelta/IC50
  IC50: 28 nM

## COCCN(C)c1ccc(-n2c(=O)n(C)c3cnc4ccc(-c5cnc(CO)c(OC)c5)cc4c32)c(C)n1 [Example 15.9, 8-(6-Hydroxymethyl-5-methoxy-pyridin-3-yl)-1-{6-[(2-methoxy-ethyl)-methyl-amino]-2-methyl-pyridin-3-yl}-3-methyl-1,3-dihydro-imidazo[4,5-c]quinolin-2-one]
PI3K alfa; read-out: EPK_PI3Kalfa/IC50
  IC50: 23 nM
PI3K delta; read-out: EPK_PI3Kdelta/IC50
  IC50: 40 nM

## CNc1ncc(-c2ccc3ncc4c(c3c2)n(-c2cnc(F)cc2C)c(=O)n4C)cn1 [Example 16.3, 1-(6-Fluoro-4-methyl-pyridin-3-yl)-3-methyl-8-(2-methylamino-pyrimidin-5-yl)-1,3-dihydro-imidazo[4,5-c]quinolin-2-one]
PI3K alfa; read-out: EPK_PI3Kalfa/IC50
  IC50: 71 nM
PI3K delta; read-out: EPK_PI3Kdelta/IC50
  IC50: 113 nM

## Cc1cc(F)ncc1-n1c(=O)n(C)c2cnc3ccc(-c4cnc5c(ccn5C)c4)cc3c21 [Example 16.5, 1-(6-Fluoro-4-methyl-pyridin-3-yl)-3-methyl-8-(1-methyl-1H-pyrrolo[2,3-b]pyridin-5-yl)-1,3-dihydro-imidazo[4,5-c]quinolin-2-one]
PI3K alfa; read-out: EPK_PI3Kalfa/IC50
  IC50: 27 nM
PI3K delta; read-out: EPK_PI3Kdelta/IC50
  IC50: 39 nM

## COc1ccc(-n2c(=O)n(C)c3cnc4ccc(-c5ccc6nccn6c5)cc4c32)c(OC)n1 [Example 8.10, 1-(2,6-Dimethoxy-pyridin-3-yl)-8-imidazo[1,2-a]pyridin-6-yl-3-methyl-1,3-dihydro-imidazo[4,5-c]quinolin-2-one]
PI3K alfa; read-out: EPK_PI3Kalfa/IC50
  IC50: 80 nM
PI3K delta; read-out: EPK_PI3Kdelta/IC50
  IC50: 192 nM

## Cc1ccc(-n2c(=O)n(C)c3cnc4ccc(-c5cnc(N(C)C)nc5)cc4c32)c(C)n1 [Example 14.3, 8-(2-Dimethylamino-pyrimidin-5-yl)-1-(2,6-dimethyl-pyridin-3-yl)-3-methyl-1,3-dihydro-imidazo[4,5-c]quinolin-2-one]
PI3K alfa; read-out: EPK_PI3Kalfa/IC50
  IC50: 140 nM
PI3K delta; read-out: EPK_PI3Kdelta/IC50
  IC50: 49 nM

## CCOc1ccc(-c2ccc3ncc4c(c3c2)n(-c2ccc(OCCOC)nc2C)c(=O)n4C)cn1 [Example 13.1, 8-(6-Ethoxy-pyridin-3-yl)-1-[6-(2-methoxy-ethoxy)-2-methyl-pyridin-3-yl]-3-methyl-1,3-dihydro-imidazo[4,5-c]quinolin-2-one]
PI3K alfa; read-out: EPK_PI3Kalfa/IC50
  IC50: 158 nM
PI3K delta; read-out: EPK_PI3Kdelta/IC50
  IC50: 742 nM

## CCOCc1cc(-c2ccc3ncc4c(c3c2)n(-c2ccc(F)nc2C)c(=O)n4C)cnc1N [Example 7.15, 8-(6-Amino-5-ethoxymethyl-pyridin-3-yl)-1-(6-fluoro-2-methyl-pyridin-3-yl)-3-methyl-1,3-dihydro-imidazo[4,5-c]quinolin-2-one]
PI3K alfa; read-out: EPK_PI3Kalfa/IC50
  IC50: 59 nM
PI3K delta; read-out: EPK_PI3Kdelta/IC50
  IC50: 37 nM
